Tested on: TPM3-NTRK1-wt IC50 / primary target (e.g. CD74-ROS1-wt) IC50, Ba/F3 cells
Assay: Cell assay TRKA selectivity (TRKA potency divided by primary target potency)
Assay type: cell-based
Settings: for TPM3-NTRK1-wt/CD74-ROS1-G2032R: TRKA selectivity ratio: TPM3-NTRK1-wt IC50 / CD74-ROS1-G2032R IC50, Ba/F3 cells; for TPM3-NTRK1-wt/CD74-ROS1-wt: TRKA selectivity ratio: TPM3-NTRK1-wt IC50 / CD74-ROS1-wt IC50, Ba/F3 cells; for TPM3-NTRK1-wt/EML4-ALK-L1196M-G1202R: TRKA selectivity ratio: TPM3-NTRK1-wt IC50 / EML4-ALK-L1196M-G1202R IC50, Ba/F3 cells; for TPM3-NTRK1-wt/EML4-ALK-wt: TRKA selectivity ratio: TPM3-NTRK1-wt IC50 / EML4-ALK-wt IC50, Ba/F3 cells
Source text: Genes encoding CD74-ROS1 wild-type (wt), CD74-ROS1 G2032R, CD74-ROS1 S1986F, CD74-ROS1 L2026M, CD74-ROS1 D2033N, EML4-ALK wt (variant 1), EML4-ALK G1202R (variant 1), EML4-ALK L1196M/G1202R (variant 1), EML4-ALK G1202R/G1269A (variant 1), EML4-ALK G1202R/L1198F (variant 1), and TPM3-TRKA were synthesized at GeneRay, cloned into the retroviral construct pMSCV-puro (Biovector), and packaged into retroviral particles. The virus was used to infect Ba/F3 cells (RIKEN) at multiplicity of infection=1 for 1 day. Infected cells were rescued in media (RPMI-1640 with 10% fetal bovine serum and 1% streptomycin and penicillin) supplemented with mouse IL-3 (10 ng/mL) for 2 days, and stable cell lines were selected by IL-3 withdrawal and puromycin (0.8 μg/mL) for 7 days. Monoclones were selected by single-cell dilution in IL-3-free medium containing puromycin (0.8 μg/mL). Transformation of desired genes was confirmed by Sanger sequencing and western blot using the following antibodies: ROS1 (CST #3287), ALK (CST #3633), and pan-TRK (Abcam #76291).
Stable cells were plated at 1,000 cells/well (40 μL) in a 384-well plate for 1 day. Test compounds (40 nL) were then added in a 3-fold dilution series using the TECAN EVO200 liquid handler and incubated for 72 hours. Plates were equilibrated at room temperature for 15 minutes followed by addition of 40 μL CellTiter-Glo reagent (Promega). Luminescence was measured on a plate reader. Half-maximal inhibitory concentration (IC50) was calculated from percent inhibition and inhibitor concentration using four-parameter logistic regression. […] Exemplary data is given in Table 4 (nd is not determined).
TRKA selectivity was calculated by dividing a compound's TRKA potency by its primary target potency (e.g. TPM3-NTRK1-wt IC50/CD74-ROS1-wt IC50). Compound selectivity can be interpreted by binning ratio values: bin A for very high selectivity, ratio>30-fold; bin B for high selectivity, ratio>10-fold; bin C for moderate selectivity, ratio≥1; and bin D for low selectivity, ratio<1. […] (nd=not determined).

Compound: CCn1ncc2c1-c1cnc(N)c(c1)O[C@H](C)c1cc(F)ccc1-c1nn(C)cc1C2 [Example 1, (19R)-3-ethyl-16-fluoro-10,19-dimethyl-20-oxa-3,4,10,11,23-pentaazapentacyclo[19.3.1.0^2,^60^8,^12.0^13,^18]pentacosa-1(24),2(6),4,8,11,13,15,17,21(25),22-decaen-22-amine]
- TPM3-NTRK1-wt/CD74-ROS1-G2032R: A (bin A for very high selectivity, ratio>30-fold)
- TPM3-NTRK1-wt/CD74-ROS1-wt: A (bin A for very high selectivity, ratio>30-fold)
- TPM3-NTRK1-wt/EML4-ALK-L1196M-G1202R: A (bin A for very high selectivity, ratio>30-fold)
- TPM3-NTRK1-wt/EML4-ALK-wt: A (bin A for very high selectivity, ratio>30-fold)

Compound: CC1Oc2cc(cnc2N)-c2c(cnn2C)Cc2cnn(C)c2-c2ccc(F)cc21 (stereo not drawn) [Example 2, 16-fluoro-3,11,19-trimethyl-20-oxa-3,4,10,11,23-pentaazapentacyclo[19.3.1.0^2,^6.0^8,^12.0^13,^18]pentacosa-1(24),2(6),4,8(12),9,13,15,17,21(25),22-decaen-22-amine]
- TPM3-NTRK1-wt/CD74-ROS1-G2032R: B (bin B for high selectivity, ratio>10-fold)
- TPM3-NTRK1-wt/CD74-ROS1-wt: A (bin A for very high selectivity, ratio>30-fold)
- TPM3-NTRK1-wt/EML4-ALK-L1196M-G1202R: D (bin D for low selectivity, ratio<1)
- TPM3-NTRK1-wt/EML4-ALK-wt: B (bin B for high selectivity, ratio>10-fold)

Compound: CCn1ncc2c1-c1cnc(N)c(c1)O[C@H](C)c1cc(F)ccc1-c1ncccc1C2 [Example 3, (20R)-3-ethyl-17-fluoro-20-methyl-21-oxa-3,4,12,24-tetraazapentacyclo[20.3.1.0^2,^6.0^8,^13.0^14,^19]hexacosa-1(25),2(6),4,8(13),9,11,14,16,18,22(26),23-undecaen-23-amine]
- TPM3-NTRK1-wt/CD74-ROS1-G2032R: A (bin A for very high selectivity, ratio>30-fold)
- TPM3-NTRK1-wt/EML4-ALK-L1196M-G1202R: B (bin B for high selectivity, ratio>10-fold)
- TPM3-NTRK1-wt/EML4-ALK-wt: A (bin A for very high selectivity, ratio>30-fold)

Compound: CCn1ncc2c1-c1ccc(F)cc1[C@@H](C)Oc1cc(cnc1N)-c1c(cnn1C)C2 [Example 4, (19R)-11-ethyl-16-fluoro-3,19-dimethyl-20-oxa-3,4,10,11,23-pentaazapentacyclo[19.3.1.0^2,^6.0^8,^12.0^13,^18]pentacosa-1(24),2(6),4,8(12),9,13,15,17,21(25),22-decaen-22-amine]
- TPM3-NTRK1-wt/CD74-ROS1-G2032R: B (bin B for high selectivity, ratio>10-fold)
- TPM3-NTRK1-wt/CD74-ROS1-wt: A (bin A for very high selectivity, ratio>30-fold)
- TPM3-NTRK1-wt/EML4-ALK-L1196M-G1202R: D (bin D for low selectivity, ratio<1)
- TPM3-NTRK1-wt/EML4-ALK-wt: C (bin C for moderate selectivity, ratio≥1)

Compound: C[C@H]1Oc2cc(cnc2N)-c2c(cnn2C2CCC2)Cc2cnn(C)c2-c2ccc(F)cc21 [Example 5, (19R)-3-cyclobutyl-16-fluoro-11,19-dimethyl-20-oxa-3,4,10,11,23-pentaazapentacyclo[19.3.1.0^2,^6.0^8,^12.0^13,^18]pentacosa-1(24),2(6),4,8(12),9,13,15,17,21(25),22-decaen-22-amine]
- TPM3-NTRK1-wt/CD74-ROS1-G2032R: A (bin A for very high selectivity, ratio>30-fold)
- TPM3-NTRK1-wt/CD74-ROS1-wt: A (bin A for very high selectivity, ratio>30-fold)
- TPM3-NTRK1-wt/EML4-ALK-L1196M-G1202R: A (bin A for very high selectivity, ratio>30-fold)
- TPM3-NTRK1-wt/EML4-ALK-wt: A (bin A for very high selectivity, ratio>30-fold)

Compound: CCc1c(C#N)nn2c1-c1cnc(N)c(c1)O[C@H](C)c1cc(F)ccc1-c1nn(C)cc1C2 [Example 6, (19R)-22-amino-3-ethyl-16-fluoro-10,19-dimethyl-20-oxa-5,6,10,11,23-pentaazapentacyclo[19.3.1.0^2,^6.0^8,^12.0^13,^18]pentacosa-1(24),2,4,8,11,13,15,17,21(25),22-decaene-4-carbonitrile]
- TPM3-NTRK1-wt/CD74-ROS1-G2032R: A (bin A for very high selectivity, ratio>30-fold)
- TPM3-NTRK1-wt/CD74-ROS1-wt: A (bin A for very high selectivity, ratio>30-fold)
- TPM3-NTRK1-wt/EML4-ALK-L1196M-G1202R: C (bin C for moderate selectivity, ratio≥1)
- TPM3-NTRK1-wt/EML4-ALK-wt: A (bin A for very high selectivity, ratio>30-fold)

Compound: Cn1cc2c(n1)-c1ccc(F)cc1COc1cc(cnc1N)-c1c(cnn1C1CCC1)C2 [Example 7, 3-cyclobutyl-16-fluoro-10-methyl-20-oxa-3,4,10,11,23-pentaazapentacyclo[19.3.1.0^2,^6.0^8,^12.0^13,^18]pentacosa-1(24),2(6),4,8,11,13,15,17,21(25),22-decaen-22-amine]
- TPM3-NTRK1-wt/CD74-ROS1-G2032R: A (bin A for very high selectivity, ratio>30-fold)
- TPM3-NTRK1-wt/EML4-ALK-L1196M-G1202R: A (bin A for very high selectivity, ratio>30-fold)

Compound: CCn1ncc2c1-c1cnc(N)c(c1)OCc1cc(F)ccc1-c1ncccc1C2 [Example 8, 3-ethyl-17-fluoro-21-oxa-3,4,12,24-tetraazapentacyclo[20.3.1.0^2,^6.0^8,^13.0^14,^19]hexacosa-1(25),2(6),4,8(13),9,11,14,16,18,22(26),23-undecaen-23-amine]
- TPM3-NTRK1-wt/CD74-ROS1-G2032R: A (bin A for very high selectivity, ratio>30-fold)
- TPM3-NTRK1-wt/CD74-ROS1-wt: A (bin A for very high selectivity, ratio>30-fold)
- TPM3-NTRK1-wt/EML4-ALK-L1196M-G1202R: B (bin B for high selectivity, ratio>10-fold)
- TPM3-NTRK1-wt/EML4-ALK-wt: A (bin A for very high selectivity, ratio>30-fold)

Compound: C[C@H]1Oc2cc(cnc2N)-c2c(C#N)cnn2Cc2cn(C)nc2-c2ccc(F)cc21 [Example 9, (19R)-22-amino-16-fluoro-10,19-dimethyl-20-oxa-5,6,10,11,23-pentaazapentacyclo[19.3.1.0^2,^6.0^8,^12.0^13,^18]pentacosa-1(24),2,4,8,11,13,15,17,21(25),22-decaene-3-carbonitrile]
- TPM3-NTRK1-wt/CD74-ROS1-G2032R: B (bin B for high selectivity, ratio>10-fold)
- TPM3-NTRK1-wt/CD74-ROS1-wt: A (bin A for very high selectivity, ratio>30-fold)
- TPM3-NTRK1-wt/EML4-ALK-L1196M-G1202R: C (bin C for moderate selectivity, ratio≥1)
- TPM3-NTRK1-wt/EML4-ALK-wt: A (bin A for very high selectivity, ratio>30-fold)

Compound: C[C@H]1Oc2cc(cnc2N)-c2c(C#N)ncn2Cc2cnccc2-c2ccc(F)cc21 [Example 10, (20R)-23-amino-17-fluoro-20-methyl-21-oxa-4,6,10,24-tetraazapentacyclo[20.3.1.0^2,^6.0^8,^13.0^14,^19]hexacosa-1(25),2,4,8(13),9,11,14,16,18,22(26),23-undecaene-3-carbonitrile]
- TPM3-NTRK1-wt/CD74-ROS1-G2032R: A (bin A for very high selectivity, ratio>30-fold)
- TPM3-NTRK1-wt/CD74-ROS1-wt: D (bin D for low selectivity, ratio<1)
- TPM3-NTRK1-wt/EML4-ALK-L1196M-G1202R: C (bin C for moderate selectivity, ratio≥1)
- TPM3-NTRK1-wt/EML4-ALK-wt: A (bin A for very high selectivity, ratio>30-fold)

Compound: C[C@H]1Oc2cc(cnc2N)-c2c(C#N)ncn2Cc2ccncc2-c2ccc(F)cc21 [Example 11, (20R)-23-amino-17-fluoro-20-methyl-21-oxa-4,6,11,24-tetraazapentacyclo[20.3.1.0^2,^6.0^8,^13.0^14,^19]hexacosa-1(25),2,4,8(13),9,11,14,16,18,22(26),23-undecaene-3-carbonitrile]
- TPM3-NTRK1-wt/CD74-ROS1-G2032R: A (bin A for very high selectivity, ratio>30-fold)
- TPM3-NTRK1-wt/CD74-ROS1-wt: A (bin A for very high selectivity, ratio>30-fold)
- TPM3-NTRK1-wt/EML4-ALK-L1196M-G1202R: C (bin C for moderate selectivity, ratio≥1)
- TPM3-NTRK1-wt/EML4-ALK-wt: A (bin A for very high selectivity, ratio>30-fold)

Compound: C[C@H]1Oc2cc(cnc2N)-c2c(C#N)ncn2Cc2cccnc2-c2ccc(F)cc21 [Example 12, (20R)-23-amino-17-fluoro-20-methyl-21-oxa-4,6,12,24-tetraazapentacyclo[20.3.1.0^2,^6.0^8,^13.0^14,^19]hexacosa-1(25),2,4,8(13),9,11,14,16,18,22(26),23-undecaene-3-carbonitrile]
- TPM3-NTRK1-wt/CD74-ROS1-G2032R: A (bin A for very high selectivity, ratio>30-fold)
- TPM3-NTRK1-wt/CD74-ROS1-wt: A (bin A for very high selectivity, ratio>30-fold)
- TPM3-NTRK1-wt/EML4-ALK-L1196M-G1202R: A (bin A for very high selectivity, ratio>30-fold)
- TPM3-NTRK1-wt/EML4-ALK-wt: A (bin A for very high selectivity, ratio>30-fold)

From patent US11667649B2, “Heteroaromatic macrocyclic ether chemotherapeutic agents” (Nuvalent, Inc., priority 2020, dated 2023)
